Measured values published in patent publication US5955500A (G. D. Searle & Co., priority 1997, dated 1999).
Values joined by “and” are separate entries in the source; they are usually repeats but may differ in a detail not shown here. Equal entries are not always repeated. Structures can show the parent of a compound that is named as a salt. Where two headings read alike, the source gives them in different places.

Key:
canine heart = conditions: for AH time / Heart rate / Mean arterial pressure: mean ± SE, listed as 50/50S
[1] = pH 5, individual replicates; listed as 50, hydrochloride
[2] = system: supraventricular tachycardia; conditions: intravenous; cited from earlier work
[3] = 0.1 mg/kg i.v., 0 min, hydrochloride
[4] = 0.1 mg/kg i.v., 1 min, hydrochloride
[5] = 0.1 mg/kg i.v., 2 min, hydrochloride
[6] = 0.1 mg/kg i.v., 3 min, hydrochloride
[7] = 0.1 mg/kg i.v., 4 min, hydrochloride
[8] = 0.1 mg/kg i.v., 5 min, hydrochloride
[9] = 0.2 mg/kg i.v., 0 min, hydrochloride
[10] = 0.2 mg/kg i.v., 1 min, hydrochloride
[11] = 0.2 mg/kg i.v., 2 min, hydrochloride
[12] = 0.2 mg/kg i.v., 3 min, hydrochloride
[13] = 0.2 mg/kg i.v., 4 min, hydrochloride
[14] = 0.2 mg/kg i.v., 5 min, hydrochloride
[15] = 0.4 mg/kg i.v., 0 min, hydrochloride
[16] = 0.4 mg/kg i.v., 1 min, hydrochloride
[17] = 0.4 mg/kg i.v., 2 min, hydrochloride
[18] = 0.4 mg/kg i.v., 3 min, hydrochloride
[19] = 0.4 mg/kg i.v., 4 min, hydrochloride
[20] = 0.4 mg/kg i.v., 5 min, hydrochloride

SMILES: COc1ccc(CCN(C)CCCC(C#N)(c2ccc(OC)c(OC)c2)C(C)C)cc1OC (racemic) [racemic verapamil, benzeneacetonitrile, α-[3-[[2-(3,4-dimethoxyphenyl)ethyl]methylamino]propyl]-3,4-dimethoxy-α-(1-methylethyl) hydrochloride, reference compound]
- AH time (canine heart; [3]): 97 ± 16 ms
- Heart rate (canine heart; [3]): 143 ± 11 beats per min
- Mean arterial pressure (canine heart; [3]): 92 ± 4 mmHg
- AH time (canine heart; [4]): 107 ± 12 ms
- Heart rate (canine heart; [4]): 135 ± 6 beats per min
- Mean arterial pressure (canine heart; [4]): 97 ± 4 mmHg
- AH time (canine heart; [5]): 105 ± 9 ms
- Heart rate (canine heart; [5]): 122 ± 7 beats per min
- Mean arterial pressure (canine heart; [5]): 101 ± 5 mmHg
- AH time (canine heart; [6]): 106 ± 8 ms
- Heart rate (canine heart; [6]): 118 ± 6 beats per min
- Mean arterial pressure (canine heart; [6]): 102 ± 5 mmHg
- AH time (canine heart; [7]): 104 ± 7 ms
- Heart rate (canine heart; [7]): 119 ± 7 beats per min
- Mean arterial pressure (canine heart; [7]): 100 ± 4 mmHg
- AH time (canine heart; [8]): 104 ± 6 ms
- Heart rate (canine heart; [8]): 125 ± 8 beats per min
- Mean arterial pressure (canine heart; [8]): 104 ± 4 mmHg
- AH time (canine heart; [9]): 96 ± 8 ms
- Heart rate (canine heart; [9]): 169 ± 4 beats per min
- Mean arterial pressure (canine heart; [9]): 88 ± 5 mmHg
- AH time (canine heart; [10]): 117 ± 11 ms
- Heart rate (canine heart; [10]): 164 ± 8 beats per min
- Mean arterial pressure (canine heart; [10]): 90 ± 3 mmHg
- AH time (canine heart; [11]): 112 ± 7 ms
- Heart rate (canine heart; [11]): 149 ± 10 beats per min
- Mean arterial pressure (canine heart; [11]): 101 ± 4 mmHg
- AH time (canine heart; [12]): 118 ± 9 ms
- Heart rate (canine heart; [12]): 149 ± 10 beats per min
- Mean arterial pressure (canine heart; [12]): 101 ± 6 mmHg
- AH time (canine heart; [13]): 117 ± 8 ms
- Heart rate (canine heart; [13]): 147 ± 12 beats per min
- Mean arterial pressure (canine heart; [13]): 101 ± 4 mmHg
- AH time (canine heart; [14]): 124 ± 8 ms
- Heart rate (canine heart; [14]): 147 ± 13 beats per min
- Mean arterial pressure (canine heart; [14]): 100 ± 5 mmHg
- Occurrence of AV conduction block (canine heart; 0.2 mg/kg i.v., listed as 50R/50S-verapamil, hydrochloride): 3 animals
- AH time (canine heart; [15]): 101 ± 10 ms
- Heart rate (canine heart; [15]): 180 ± 11 beats per min
- Mean arterial pressure (canine heart; [15]): 86 ± 8 mmHg
- AH time (canine heart; [16]): 112 ± 10 ms
- Heart rate (canine heart; [16]): 171 ± 7 beats per min
- Mean arterial pressure (canine heart; [16]): 87 ± 8 mmHg
- AH time (canine heart; [17]): 116 ± 5 ms
- Heart rate (canine heart; [17]): 162 ± 3 beats per min
- Mean arterial pressure (canine heart; [17]): 92 ± 7 mmHg
- AH time (canine heart; [18]): 117 ± 7 ms
- Heart rate (canine heart; [18]): 163 ± 5 beats per min
- Mean arterial pressure (canine heart; [18]): 97 ± 6 mmHg
- AH time (canine heart; [19]): 119 ± 8 ms
- Heart rate (canine heart; [19]): 162 ± 4 beats per min
- Mean arterial pressure (canine heart; [19]): 95 ± 8 mmHg
- AH time (canine heart; [20]): 113 ± 5 ms
- Heart rate (canine heart; [20]): 161 ± 9 beats per min
- Mean arterial pressure (canine heart; [20]): 98 ± 6 mmHg
- Occurrence of second and third degree AV conduction block (canine heart; 0.4 mg/kg i.v., listed as 50R/50S-verapamil, hydrochloride): 7 animals
- Peak effect on HR, in words (canine heart; dog, in vivo): drastic increase in HR
- QTc interval compared with 100R-verapamil, in words (canine heart; dog, in vivo): significantly increased compared with 100R-verapamil
- Interaction between MAP and HR (multiple linear regression), in words (canine heart; increase in HR against drop in MAP): greatest rate of increase in HR as opposed to a drop in MAP
- Sinus node recovery time (SNRT), significance (canine heart; paced at 200 beats/min): significant decrease
- Concentration in octanol [1]: 6020 ng/mL and 6360 ng/mL and 5830 ng/mL
- Concentration in water [1]: 5050 ng/mL and 4800 ng/mL and 4750 ng/mL
- Rapid and reliable control of supraventricular tachycardia, in words [2]: work well
